Experimental findings from publication PMC12399242 (Acta Pharmaceutica Sinica. B, 2025) are described below.

By EC50 is commonly meant the concentration that produces a half-maximal response. In general, IC50 refers to the midpoint of a concentration-inhibition curve. Read a low IC50 as greater potency in that assay. For orientation: AUC(0-inf) means total exposure, with the tail of the curve extrapolated. Read a low AUC(0-inf) as low exposure. One may read the AUC(0-t) as the area under the concentration-time curve up to a stated or last time point. Broadly, the Cmax is the highest concentration seen after dosing. Broadly, the Tmax is the time from dosing to the highest level. The term half-life denotes the time in which the quantity being followed falls by half. As usually defined, the bioavailability is the share of a dose that reaches the circulation, judged against a reference dose that is usually intravenous.

Like-named read-outs stand apart in the source and are kept apart here.

One series deals with HIV-1 mutant strains. Briefly: Antiviral activity against panel of HIV-1 mutant strains (summary ranges). It counts as cell-based.
For another series, the target named is T1, CYP2C19 (Homo sapiens, UniProt P33261).
T1 construct: An incubation system of human liver microsomes (20 μL, 1.5 mg/mL); from tissue; host or cells: human liver microsomes
Briefly: CYP enzyme inhibition assay, CYP2C19. It counts as in vitro ADME. The note with it: human liver microsomes. As to the method:
An incubation system of human liver microsomes (20 μL, 1.5 mg/mL), 20 μL probe substrates, and 50 μL test compound in Tris (0.1 mol/L) was pre-incubated at 37 °C for 10 min, and then initiated by adding NADPH (10 μL, 10 mmol/L). […] Finally, the sample was centrifugated to obtain the supernatant for LC‒MS/MS analysis.
In general terms: Liver microsomes are vesicles of endoplasmic reticulum, rich in cytochrome P450 enzymes.

A short description of the next series: PK study in SD rats. Format: in vivo. The note with it: male, Sprague-Dawley, plasma, SD rat; for half-life: mean ± SD, n = 3; for MRT last: read-out: MRT0–t; for MRT inf: read-out: MRT0–∞. As to the method: All animal treatments were conducted using an approved protocol of Fudan University (2020CHEM-JS-009). A12 was dissolved in a mixture of DMSO/Solutol HS 15/normal saline (10/10/80, v/v/v). Six Sprague–Dawley rats (male, 180−220 g) were assigned into two groups (n = 3) randomly to receive i.v. (1 mg/kg) or p.o. administration (10 mg/kg) of A12. At the time points of 5, 15, 30 min, 1, 2, 4, 6, 8, 10, 12, and 24 h, blood samples were collected and centrifuged (4 °C, 4500 rpm, 10 min) to obtain plasma. Before LC‒MS/MS analysis, the plasma needs to be stored at −80 °C. Subsequently, 120 μL of MeCN containing internal standard was added to 30 μL of plasma. The mixture was shaken and centrifuged (4 °C, 10,000 rpm, 15 min) to afford the supernatant layer for LC‒MS/MS analysis. Finally, The WinNolin software was applied to calculate the pharmacokinetic parameters.

T1 sequence (P33261 whole entry): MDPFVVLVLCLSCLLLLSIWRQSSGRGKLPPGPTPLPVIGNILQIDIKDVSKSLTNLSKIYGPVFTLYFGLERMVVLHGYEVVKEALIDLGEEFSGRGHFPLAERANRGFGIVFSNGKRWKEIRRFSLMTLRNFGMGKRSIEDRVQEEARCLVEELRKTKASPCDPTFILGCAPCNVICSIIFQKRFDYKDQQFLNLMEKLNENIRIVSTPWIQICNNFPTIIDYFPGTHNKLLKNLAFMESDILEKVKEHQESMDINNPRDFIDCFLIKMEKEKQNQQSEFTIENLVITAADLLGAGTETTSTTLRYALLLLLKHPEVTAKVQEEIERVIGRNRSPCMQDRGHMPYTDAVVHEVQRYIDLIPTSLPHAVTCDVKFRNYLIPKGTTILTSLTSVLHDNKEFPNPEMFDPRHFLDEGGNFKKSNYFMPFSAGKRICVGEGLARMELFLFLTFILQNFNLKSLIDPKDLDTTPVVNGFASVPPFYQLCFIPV

On to `Cc1cc(-c2ccc(C#N)cc2)cc(C)c1Nc1nc(Nc2ccc(C#N)cc2)ncc1F` [A12, 4′-((2-((4-Cyanophenyl)amino)-5-fluoropyrimidin-4-yl)amino)-3′,5′-dimethyl-[1,1′-biphenyl]-4-carbonitrile], for which the EC50 with HIV-1 mutant strains (Human immunodeficiency virus 1, read-out: EC50 mutant strains L100I, K103N, Y181C, and E138K) lay in the range of 1.7 to 7.1 nM. For the same compound, in the series on HIV-1 mutant strains (Human immunodeficiency virus 1, read-out: EC50 seven mutant strains), the EC50 is 1.7 to 157 nM. The compound further had a 50% inhibitory concentration (IC50) against CYP2C19 of 14500 nM. Moreover, in “PK study in SD rats” (iv, 1.0 mg/kg i.v.), the total exposure AUC(0-inf) was 3060 ± 139 ng·h/mL, the AUC(0-t) was 3000 ± 142 ng·h/mL, the maximum concentration (Cmax) is 2350 ± 178 ng/mL and the Tmax was 0.0833 h. In the series “PK study in SD rats” (iv, 1.0 mg/kg i.v.), the half-life is 5.53 ± 2.04 h, the MRT last amounted to 3.25 ± 0.575 h and the MRT inf worked out at 3.89 ± 1.03 h. Also, the bioavailability in the series “PK study in SD rats” (oral, 10.0 mg/kg p.o. vs 1.0 mg/kg i.v., read-out: F (oral bioavailability)) was found to be 29.2 ± 6%. Besides, in the series “PK study in SD rats” (po, 10.0 mg/kg p.o.), the AUC(0-inf) was 8930 ± 1850 ng·h/mL, the exposure AUC(0-t) turned out to be 7340 ± 1890 ng·h/mL, the concentration peaked (Cmax) at 1390 ± 422 ng/mL and the time to peak (Tmax) came out at 1 h. In “PK study in SD rats” (po, 10.0 mg/kg p.o.), the half-life is 13.6 ± 6.64 h, the MRT last stood at 6.18 ± 0.306 h and the MRT inf was 13.5 ± 6.49 h.
